Laboratory results taken from patent US8481522B2, “Platinum-N-heterocyclic carbene derivatives, preparation thereof and therapeutic use thereof” (Sanofi, priority 2008, dated 2013).
Where “and” joins values, the source holds several entries; their conditions need not be identical. Equal values may be shown once.

Legend:
[1] = tested on: CCRF-CEM cells; assay: Cytotoxicity, non-adherent CCRF-CEM cells, CellTiter-Glo luminescent cell viability; type: cell-based; conditions: CCRF-CEM human T leukaemia, 96 h incubation
Description: CCRF-CEM is a human T leukaemia (Cancer 1965, 18: 522-529). Oxaliplatin induces bifunctional lesions such as inter- and intra-DNA strand adducts on these CCRF-CEM cells (Mol Pharmacol 2000, 58: 920-927). […] This deficiency makes these cells particularly […] to alkylating agents and to platinum compounds.
For the non-adherent CCRF-CEM cells, the cell viability is measured by the luminescence test CellTiter-Glo® Luminescent Cell Viability Assay (Promega, Madison, Wis., USA). When it is added to the cells, the reagent produces a luminescence in the presence of the ATP of the living cells. The results are evaluated on a suitable reader (Envision, Perkin-Elmer Life Sciences, Boston, Mass., USA).
The CCRF-CEM cells are cultured in RPMI1640 medium containing 10% foetal calf serum, 2 mM L-glutamine, 100 units/ml of penicillin and […] of streptomycin, at 37° C. in a 95% air/5% CO2 atmosphere. The cells, at the exponential growth phase, are introduced into the wells of a 96-well plate at the density of 5×10^3 cells per well in an opaque plate (Greiner), in a volume of 150 μl. After incubating for 4 h at 37° C. in a 95% air/5% CO2 atmosphere, the compounds (concentrated 20-fold) are added in a volume of 8 μl. The compounds are prepared beforehand as a stock solution at the concentration of 10 mM in DMSO. A serial dilution is performed before the compounds are brought into contact with the cells. After incubating for 96 h at 37° C., 100 μl of agents (CellTiter-Glo) are added. After lysing the cells, the release of ATP is evaluated on the Envision reader.
(§1) The IC50 values are evaluated from curves presenting the percentage viability as a function of the concentration of the test compound, using the Biostat speed software. The IC50 is defined as the concentration of the compound which inhibits 50% of the cell proliferation or 50% of the cell viability.

[2] = tested on: H460; assay: Cytotoxicity, adherent cells, 14C-thymidine incorporation (cell proliferation); type: cell-based; conditions: NCI-H460 human non-small cell lung cancer, 96 h treatment
Description: NCI-H460 is a human non-small cell lung cancer which has a mutation in the K-ras gene. This cell is sensitive to platinum compounds. In this cell line, cisplatin forms more adducts than oxaliplatin at the same concentration and yet the percentage repair is higher for oxaliplatin (DNA Repair 2006, 5: 219-225).
Cell proliferation is evaluated by the incorporation of ^14C-thymidine into the DNA of the cells. A549, CH1, CH1/DDP and H460 are cultured in Dulbecco's modified Eagle's medium (DMEM), SK-OV-3 in Mc-Coy medium, A2780 and A2780/DDP in RPMI1640 medium. All the media contain 10% foetal calf serum, 2 mM L-glutamine, 100 units/ml of penicillin and […] of streptomycin. The incubation is performed at 37° C. in a 95% air/5% CO2 atmosphere.
The cells, at the exponential growth phase, are introduced into the wells of a Cytostar 96-well plate, containing a scintillation fluid (Cytostar-T scintillating microplate, GE Healthcare Bio-Sciences AB, Uppsala, Sweden), at the density of 5×10^3 to 10^4 cells per well, in an amount of 180 μl per well. After incubating for 4 hours, the test compounds are added. The compounds are prepared beforehand as a stock solution at the concentration of 10 mM in DMSO. A serial dilution is performed before the compounds are brought into contact with the cells in a volume of 10 μl. After incubating for 72 hours at 37° C. in an atmosphere of 95% air/5% CO2, 0.1 μCi/well of ^14C-thymidine is added. 24 h later (total 96 h of treatment), the incorporation of ^14C-thymidine is recorded on a suitable scintillation counter (MicroBeta radioactivity counting, Perkin-Elmer Life Sciences, Boston, Mass., USA). The mean values obtained in the experimental groups are divided by the mean values obtained in the control groups in order to obtain percentages relative to the controls.
as §1

Compound | IC50 [1] | IC50 [2]
Cn1ccn(Cc2ccc(C(F)(F)F)cc2)[c]1=[Pt-]([Br])([Br])[NH2+]C1CCCCC1 [Example 38, trans-dibromo(N-cyclohexylamine)[1-methyl-3-(4-trifluoromethyl-benzyl)imidazol-2-ylidene]platinum(II)] | 2.2 µM | 3 µM
Cn1ccn(C)[c]1=[Pt-]([I])([I])[NH2+]C1CCCCC1 [Example 1, trans-diiodo(N-cyclohexylamine)(1,3-dimethylimidazol-2-ylidene)platinum(II)] | 2.8 µM and 1.9 µM | 5.4 µM and 3 µM
Cn1c(=O)c2c(n(C)c1=O)n(C)[c](=[Pt]([I])([I])[NH]C1CC3CCC1C3)n2C (racemic) [Example 25, trans-diiodo(N-exo(+/−)bicyclo[2.2.1]heptylamine) (1,3,7,9-tetramethylxanthin-8-ylidene)platinum(II)] | 1 µM | 1.5 µM
Cn1ccn(Cc2ccccc2)[c]1=[Pt-]([I])([I])[NH2+]C1CCCC1 [Example 30, trans-diiodo(N-cyclopentylamine)(1-methyl-3-benzylimidazol-2-ylidene)platinum(II)] | 1.1 µM | 1.3 µM
COc1ccc(Cn2cc[n+](C)[c]2[Pt-2]([I])([I])[NH2+]C2CCCCC2)cc1OC [Example 35, trans-diiodo(N-cyclohexylamine)[3-(3,4-dimethoxybenzyl)-1-methylimidazol-2-ylidene]platinum(II)] | 1.3 µM | 2.7 µM
C[n+]1c(-c2ccccc2)c(-c2ccccc2)n(Cc2ccccc2)[c]1[Pt-2]([I])([I])[NH2+]C1CCCCC1 [Example 26, trans-diiodo(N-cyclohexylamine)[3-benzyl-4,5-diphenyl-1-methyl-imidazol-2-ylidene]platinum (II)] | 1.2 µM | 2.9 µM
CC(C)(C)[n+]1ccn(Cc2ccccc2)[c]1[Pt-2]([I])([I])[n+]1ccccc1 [Reference product, trans-diiodo(pyridine)(1-benzyl-3-tert-butylimidazol-2-ylidene)platinum(II), reference compound] | 3.9 µM | 4.4 µM
Cn1ccn(C)[c]1=[Pt-]([I])([I])[NH2+]C1CC2CCC1C2 (single isomer, unassigned) [Example 24, trans-diiodo(N-exo(−)bicyclo[2.2.1]heptylamine)(1,3-dimethylimidazol-2-ylidene)platinum(II)] | 0.9 µM | 2.1 µM
CN1CCC([NH2+][Pt-]([I])([I])=[c]2n(C)ccn2Cc2ccccc2)CC1 [Example 27, trans-diiodo[N-(1-methylpiperidin-4-ylamine)](1-methyl-3-benzyl-imidazol-2-ylidene)platinum(II)] | 1.6 µM | 1.7 µM
Cn1ccn(Cc2ccccc2)[c]1=[Pt-]([I])([I])[NH2+]C1CCOCC1 [Example 29, trans-diiodo(N-4-aminotetrahydropyran)(1-methyl-3-benzylimidazol-2-ylidene)platinum(II)] | 0.5 µM | 0.9 µM
[I][Pt-]([I])([NH2+]C1CCCCC1)=[c]1n(C2CCCCC2)ccn1C1CCCCC1 [Example 18, trans-diiodo(N-cyclohexylamine)(1,3-dicyclohexylimidazol-2-ylidene)platinum(II)] | 1.4 µM | 2.7 µM
Cn1[c](=[Pt]([I])([I])[NH]C2CCCCC2)n(C)c2ccccc21 [Example 8, trans-diiodo(N-cyclohexylamine)(1,3-dimethylbenzimidazol-2-ylidene)platinum(II)] | 3.1 µM | 1.9 µM
C=Cn1ccn(C)[c]1=[Pt-]([I])([I])[NH2+]C1CCCCC1 [Example 15, trans-diiodo(N-cyclohexylamine)[1-methyl-3-vinylimidazol-2-ylidene]platinum(II)] | 2.1 µM | 3.8 µM
Cn1ccn(Cc2ccccc2)[c]1=[Pt-]([I])([I])[NH+]1CCOCC1 [Example 31, trans-diiodo(N-morpholine)(1-methyl-3-benzylimidazol-2-ylidene)-platinum(II)] | 0.7 µM | 0.9 µM
Cn1ccn(-c2ccccc2)[c]1=[Pt-]([I])([I])[NH2+]C1CCCCC1 [Example 4, trans-diiodo(N-cyclohexylamine)(1-methyl-3-phenylimidazol-2-ylidene)platinum(II)] | 1.5 µM | 2.3 µM
trans-diiodo(N-cyclohexylamine)(1-methyl-3-phenyl-1,2,4-triazol-5-ylidene)platinum(II) [Example 19] | 1 µM | 2.3 µM
CCC(CC)[NH2+][Pt-]([I])([I])=[c]1n(C)ccn1Cc1ccccc1 [Example 28, trans-diiodo(N-pentan-3-ylamine)(1-methyl-3-benzylimidazol-2-ylidene)platinum(II)] | 1.4 µM | 1.6 µM
Cn1ccn(C)[c]1=[Pt-]([I])([I])[NH2+]C1CC2CCC1C2 (racemic) [Example 6, trans-diiodo(N-exo(+/−)bicyclo[2.2.1]heptylamine)(1,3-dimethyl-imidazol-2-ylidene)platinum(II)] | 1.7 µM | 2.8 µM
Cn1ccn(C)[c]1=[Pt-]([I])([I])[NH2+]Cc1ccccc1 [Example 13, trans-diiodo(N-benzylamine)(1,3-dimethylimidazol-2-ylidene)-platinum(II)] | 1.7 µM | 3 µM
Cn1c(-c2ccccc2)c[n+](C)[c]1[Pt-2]([I])([I])[NH2+]C1CCCCC1 [Example 20, trans-diiodo(N-cyclohexylamine)[1,3-dimethyl-4-phenylimidazol-2-ylidene]platinum(II)] | 2.1 µM | 4.4 µM
COc1cccc(Cn2cc[n+](C)[c]2[Pt-2]([I])([I])[NH2+]C2CCCCC2)c1 [Example 32, trans-diiodo(N-cyclohexylamine)[3-(3-methoxybenzyl)-1-methyl-imidazol-2-ylidene]platinum(II)] | 1.2 µM | 1.4 µM
trans-diiodo(N-cyclohexylamine)[3-benzyl-1-methyl-4-phenylimidazol-2-ylidene]platinum(II) [Example 21] | 0.9 µM | 1.9 µM
Cn1cc[n+](Cc2ccc(C(F)(F)F)cc2)[c]1[Pt-2]([I])([I])[NH2+]C1CCOCC1 [Example 37, trans-diiodo(N-tetrahydropyran-4-ylamine)(1-methyl-3-(4-trifluoro-methylbenzyl)imidazol-2-ylidene)platinum(II)] | 0.9 µM | 1.4 µM
Cn1ccn(C)[c]1=[Pt-]([I])([I])[NH2+]C1CC2CCC1C2 (single isomer, unassigned) [Example 23, trans-diiodo(N-exo(+)bicyclo[2.2.1]heptylamine)(1,3-dimethylimidazol-2-ylidene)platinum(II)] | 1.6 µM | 2.3 µM
C[n+]1ccn(Cc2cccc(C(F)(F)F)c2)[c]1[Pt-2]([I])([I])[NH2+]C1CCCCC1 [Example 33, trans-diiodo(N-cyclohexylamine)[1-methyl-3-(3-trifluoromethylbenzyl)imidazol-2-ylidene]platinum(II)] | 0.7 µM | 0.8 µM
Cn1ccn(Cc2ccc(C(F)(F)F)cc2)[c]1=[Pt-]([NH2+]C1CCCCC1)([O][N+](=O)[O-])[O][N+](=O)[O-] [Example 34, trans-dinitrato(N-cyclohexylamine)[1-methyl-3-(4-trifluoromethyl-benzyl)imidazol-2-ylidene]platinum(II)] | 1.4 µM | 3.1 µM
